Experimental data as given in ChEMBL document CHEMBL1129835, “Selective cytotoxicity of certain 9-substituted ellipticines for leukemia cells in a variety of leukemia cell cultures” (1997).

Columns and labels:
KM12 [1] = assay: Cytotoxicity exhibited by the compound for total growth inhibition of colon cancer KM-12 cell line; assay type: functional; conditions: Homo sapiens
NCI-H522 [2] = assay: Effective dose to show cytotoxicity against non-small cell lung cancer NCI-H522 cell line was determined; assay type: functional; conditions: Homo sapiens, read-out: ED50 (the source's name)
OVCAR-3 [3] = assay: Concentration for 50% cell kill against ovarian cancerOVCAR-3 cell line was determined; assay type: functional; conditions: Homo sapiens, read-out: LC50 (the source's name)
SN12C [4] = assay: Effective dose to show cytotoxicity against renal cancer SN12C cell line was determined; assay type: functional; conditions: Homo sapiens, read-out: ED50 (the source's name)
SNB-75 [5] = assay: Cytotoxicity exhibited by the compound for total growth inhibition of CNS cancer SNB-75 cell line; assay type: functional; conditions: Homo sapiens
SN12C [6] = assay: Cytotoxicity exhibited by the compound for total growth inhibition of renal cancer SN12C cell line; assay type: functional; conditions: Homo sapiens
RPMI-8226 [7] = assay: Concentration for 50% cell kill against leukemia RPMI-8226 cell line was determined; assay type: functional; conditions: Homo sapiens, read-out: LC50 (the source's name)
KM12 [8] = assay: Effective dose to show cytotoxicity against colon cancer KM-12 cell line was determined; assay type: functional; conditions: Homo sapiens, read-out: ED50 (the source's name)
RPMI-8226 [9] = assay: Effective dose to show cytotoxicity against leukemia RPMI-8226 cell line was determined; assay type: functional; conditions: Homo sapiens, read-out: ED50 (the source's name)
NCI-H522 [10] = assay: Cytotoxicity exhibited by the compound for total growth inhibition of non-small cell lung cancer NCI-H522 cell line; assay type: functional; conditions: Homo sapiens
OVCAR-3 [11] = assay: Cytotoxicity exhibited by the compound for total growth inhibition of ovarian cancer OVCAR-3 cell line; assay type: functional; conditions: Homo sapiens
RXF 393 [12] = assay: Cytotoxicity exhibited by the compound for total growth inhibition of renal cancer RXF 393 cell line; assay type: functional; conditions: Homo sapiens
HL-60 [13] = assay: Effective dose to show cytotoxicity against leukemia HL-60 (TB) cell line was determined; assay type: functional; conditions: Homo sapiens, read-out: ED50 (the source's name)
RPMI-8226 [14] = assay: Cytotoxicity exhibited by the compound for total growth inhibition of leukemia RPMI-8226 cell line; assay type: functional; conditions: Homo sapiens
MOLT-4 [15] = assay: Concentration for 50% cell kill against leukemia MOLT-4 cell line was determined; assay type: functional; conditions: Homo sapiens, read-out: LC50 (the source's name)
T47D [16] = assay: Concentration for 50% cell kill against breast cancer T-47D cell line was determined; assay type: functional; conditions: Homo sapiens, read-out: LC50 (the source's name)
NCI-H322M [17] = assay: Concentration for 50% cell kill against non-small cell lung cancer NCI-H322M cell line was determined; assay type: functional; conditions: Homo sapiens, read-out: LC50 (the source's name)
HL-60 [18] = assay: Cytotoxicity exhibited by the compound for total growth inhibition of leukemia HL-60 (TB) cell line; assay type: functional; conditions: Homo sapiens
OVCAR-8 [19] = assay: Cytotoxicity exhibited by the compound for total growth inhibition of ovarian cancer OVCAR-8 cell line; assay type: functional; conditions: Homo sapiens
SNB-75 [20] = assay: Effective dose to show cytotoxicity against CNS cancer SNB-75 cell line was determined; assay type: functional; conditions: Homo sapiens, read-out: ED50 (the source's name)
MOLT-4 [21] = assay: Cytotoxicity exhibited by the compound for total growth inhibition of leukemia MOLT-4 cell line; assay type: functional; conditions: Homo sapiens
[22] = tested on: MDA-MB-435 (Homo sapiens); assay: Effective dose to show cytotoxicity against breast cancer MDA-MB-435 cell line was determined; conditions: read-out: ED50 (the source's name)
U-251 = assay: The compound was evaluated for cytotoxicity against U251 CNS cancer cell line; assay type: functional; conditions: Homo sapiens
RXF 393 [23] = assay: Effective dose to show cytotoxicity against renal cancer RXF 393 cell line was determined; assay type: functional; conditions: Homo sapiens, read-out: ED50 (the source's name)
PC-3 = assay: Concentration for 50% cell kill against prostate cancerPC-3 cell line was determined; assay type: functional; conditions: Homo sapiens, read-out: LC50 (the source's name)
MOLT-4 [24] = assay: The compound was evaluated for cytotoxicity against MOLT-4 leukemia cell line; assay type: functional; conditions: Homo sapiens
T47D [25] = assay: Cytotoxicity exhibited by the compound for total growth inhibition of breast cancer T-47D cell line; assay type: functional; conditions: Homo sapiens
IGROV-1 [26] = assay: The compound was evaluated for cytotoxicity against IGROV1 ovarian cancer cell line; assay type: functional; conditions: Homo sapiens
IGROV-1 [27] = assay: Concentration for 50% cell kill against ovarian cancer IGROV 1 cell line was determined; assay type: functional; conditions: Homo sapiens, read-out: LC50 (the source's name)
NCI-H522 [28] = assay: Concentration for 50% cell kill against non-small cell lung cancer NCI-H522 cell line was determined; assay type: functional; conditions: Homo sapiens, read-out: LC50 (the source's name)
HL-60 [29] = assay: Concentration for 50% cell kill against leukemia HL-60 (TB) cell line was determined; assay type: functional; conditions: Homo sapiens, read-out: LC50 (the source's name)
CAKI-1 = assay: Cytotoxicity exhibited by the compound for total growth inhibition of renal cancer CAKI-1 cell line; assay type: functional; conditions: Homo sapiens
LOX IMVI [30] = assay: Concentration for 50% cell kill against melanoma LOX IMVI cell line was determined; assay type: functional; conditions: Homo sapiens, read-out: LC50 (the source's name)
SNB-19 = assay: Cytotoxicity exhibited by the compound for total growth inhibition of CNS cancer SNB-19 cell line; assay type: functional; conditions: Homo sapiens
SR [31] = assay: Effective dose to show cytotoxicity against leukemia SR cell line was determined; assay type: functional; conditions: Homo sapiens, read-out: ED50 (the source's name)
MOLT-4 [32] = assay: Effective dose to show cytotoxicity against leukemia MOLT-4 cell line was determined; assay type: functional; conditions: Homo sapiens, read-out: ED50 (the source's name)
HCT-116 = assay: Concentration for 50% cell kill against colon cancer HCT116 cell line was determined; assay type: functional; conditions: Homo sapiens, read-out: LC50 (the source's name)
SN12C [33] = assay: Concentration for 50% cell kill against renal cancer SN12C cell line was determined; assay type: functional; conditions: Homo sapiens, read-out: LC50 (the source's name)
K562 = assay: Effective dose to show cytotoxicity against leukemia K-562 cell line was determined; assay type: functional; conditions: Homo sapiens, read-out: ED50 (the source's name)
SR [34] = assay: Cytotoxicity exhibited by the compound for total growth inhibition of leukemia SR cell line; assay type: functional; conditions: Homo sapiens
NCI-H322M [35] = assay: The compound was evaluated for cytotoxicity against NCI-H322M non-small cell lung cancer cell line; assay type: functional; conditions: Homo sapiens
MDA-N = assay: Effective dose to show cytotoxicity against breast cancer MDA-N cell line was determined; assay type: functional; conditions: Homo sapiens, read-out: ED50 (the source's name)
LOX IMVI [36] = assay: Effective dose to show cytotoxicity against melanomaLOX IMVI cell line was determined; assay type: functional; conditions: Homo sapiens, read-out: ED50 (the source's name)
DU-145 = assay: Cytotoxicity exhibited by the compound for total growth inhibition of prostate cancer DU-145 cell line; assay type: functional; conditions: Homo sapiens
COLO 205 [37] = assay: Effective dose to show cytotoxicity against colon cancer COLO 205 cell line was determined; assay type: functional; conditions: Homo sapiens, read-out: ED50 (the source's name)
OVCAR-8 [38] = assay: Concentration for 50% cell kill against ovarian cancerOVCAR-8 cell line was determined; assay type: functional; conditions: Homo sapiens, read-out: LC50 (the source's name)
COLO 205 [39] = assay: Concentration for 50% cell kill against colon cancer COLO 205 cell line was determined; assay type: functional; conditions: Homo sapiens, read-out: LC50 (the source's name)

## Cc1c2ccncc2c(C)c2c1[nH]c1ccc(CO)cc12
KM12 [1]
  TGI: 1520 nM
NCI-H522 [2]
  EC50: 300 nM
OVCAR-3 [3]
  CC50: 46200 nM
SN12C [4]
  EC50: 220 nM
SNB-75 [5]
  TGI: 2630 nM
SN12C [6]
  TGI: 3470 nM
RPMI-8226 [7]
  CC50: 5570 nM
KM12 [8]
  EC50: 160 nM
RPMI-8226 [9]
  EC50: 30 nM
NCI-H522 [10]
  TGI: 2950 nM
OVCAR-3 [11]
  TGI: 52100 nM
RXF 393 [12]
  TGI: 3890 nM
HL-60 [13]
  EC50: 20 nM
RPMI-8226 [14]
  TGI: 220 nM
MOLT-4 [15]
  CC50: 4090 nM
T47D [16]
  CC50: 78200 nM
NCI-H322M [17]
  CC50: 35300 nM
HL-60 [18]
  TGI: 110 nM
OVCAR-8 [19]
  TGI: 11300 nM
SNB-75 [20]
  EC50: 490 nM
MOLT-4 [21]
  TGI: 40 nM
[22]
  EC50: 240 nM
U-251
  GI50: 280 nM
RXF 393 [23]
  EC50: 1610 nM
PC-3
  CC50: 23300 nM
MOLT-4 [24]
  GI50: 10 nM
T47D [25]
  TGI: 18400 nM
IGROV-1 [26]
  GI50: 180 nM
IGROV-1 [27]
  CC50: 62000 nM
NCI-H522 [28]
  CC50: > 100000 nM
HL-60 [29]
  CC50: 900 nM
CAKI-1
  TGI: 13400 nM
LOX IMVI [30]
  CC50: > 100000 nM
SNB-19
  TGI: 11500 nM
SR [31]
  EC50: 40 nM
MOLT-4 [32]
  EC50: 10 nM
HCT-116
  CC50: > 100000 nM
SN12C [33]
  CC50: 1910 nM
K562
  EC50: 30 nM
SR [34]
  TGI: 490 nM
NCI-H322M [35]
  GI50: 620 nM
MDA-N
  EC50: 350 nM
LOX IMVI [36]
  EC50: 370 nM
DU-145
  TGI: 11900 nM
COLO 205 [37]
  EC50: 240 nM
OVCAR-8 [38]
  CC50: 55200 nM
COLO 205 [39]
  CC50: 10200 nM
